Results published in publication PMC9481151, “Discovery of new symmetrical and asymmetrical nitrile-containing 1,4-dihydropyridine derivatives as dual kinases and P-glycoprotein inhibitors: synthesis, in vitro assays, and in silico studies” (Journal of Enzyme Inhibition and Medicinal Chemistry, 2022).
Where “and” joins values, the source holds several entries; their conditions need not be identical. Equal values may be shown once.

Columns and labels:
[1] = system: MOLT-4; assay: NCI single dose (10 µM) SRB screen; type: cell-based, human; settings: leukaemia, 48 h
[2] = system: RPMI-8226; assay: NCI single dose (10 µM) SRB screen; type: cell-based, human; settings: leukaemia, 48 h
[3] = system: SR; assay: NCI single dose (10 µM) SRB screen; type: cell-based, human; settings: leukaemia, 48 h
[4] = system: A549/ATCC; assay: NCI single dose (10 µM) SRB screen; type: cell-based, human; settings: non-small cell lung cancer, 48 h
[5] = system: HOP-62; assay: NCI single dose (10 µM) SRB screen; type: cell-based, human; settings: non-small cell lung cancer, 48 h
[6] = system: HOP-92; assay: NCI single dose (10 µM) SRB screen; type: cell-based, human; settings: non-small cell lung cancer, 48 h
[7] = system: NCI-H226; assay: NCI single dose (10 µM) SRB screen; type: cell-based, human; settings: non-small cell lung cancer, 48 h
[8] = system: NCI-H23; assay: NCI single dose (10 µM) SRB screen; type: cell-based, human; settings: non-small cell lung cancer, 48 h
[9] = system: NCI-H322M; assay: NCI single dose (10 µM) SRB screen; type: cell-based; settings: non-small cell lung cancer, 48 h
[10] = system: NCI-H522; assay: NCI single dose (10 µM) SRB screen; type: cell-based, human; settings: non-small cell lung cancer, 48 h
[11] = system: COLO 205; assay: NCI single dose (10 µM) SRB screen; type: cell-based, human; settings: colon cancer, 48 h
[12] = system: HCC-2998; assay: NCI single dose (10 µM) SRB screen; type: cell-based, human; settings: colon cancer, 48 h
[13] = system: HCT-15; assay: NCI single dose (10 µM) SRB screen; type: cell-based, human; settings: colon cancer, 48 h
[14] = system: SW-620; assay: NCI single dose (10 µM) SRB screen; type: cell-based, human; settings: colon cancer, 48 h
[15] = system: SF-268; assay: NCI single dose (10 µM) SRB screen; type: cell-based, human; settings: CNS cancer, 48 h
[16] = system: SF-295; assay: NCI single dose (10 µM) SRB screen; type: cell-based, human; settings: CNS cancer, 48 h
[17] = system: SF-539; assay: NCI single dose (10 µM) SRB screen; type: cell-based, human; settings: CNS cancer, 48 h
[18] = system: SNB-19; assay: NCI single dose (10 µM) SRB screen; type: cell-based, human; settings: CNS cancer, 48 h
[19] = system: SNB-75; assay: NCI single dose (10 µM) SRB screen; type: cell-based, human; settings: CNS cancer, 48 h
[20] = system: U251; assay: NCI single dose (10 µM) SRB screen; type: cell-based, human; settings: CNS cancer, 48 h
[21] = system: LOX IMVI; assay: NCI single dose (10 µM) SRB screen; type: cell-based, human; settings: melanoma, 48 h
[22] = system: MALME-3M; assay: NCI single dose (10 µM) SRB screen; type: cell-based, human; settings: melanoma, 48 h
[23] = system: M14; assay: NCI single dose (10 µM) SRB screen; type: cell-based, human; settings: melanoma, 48 h
[24] = system: MDA-MB-435; assay: NCI single dose (10 µM) SRB screen; type: cell-based, human; settings: melanoma, 48 h
[25] = system: SK-MEL-28; assay: NCI single dose (10 µM) SRB screen; type: cell-based, human; settings: melanoma, 48 h
[26] = system: UACC-257; assay: NCI single dose (10 µM) SRB screen; type: cell-based, human; settings: melanoma, 48 h
[27] = system: UACC-62; assay: NCI single dose (10 µM) SRB screen; type: cell-based, human; settings: melanoma, 48 h
[28] = system: IGROV1; assay: NCI single dose (10 µM) SRB screen; type: cell-based, human; settings: ovarian cancer, 48 h
[29] = system: OVCAR-3; assay: NCI single dose (10 µM) SRB screen; type: cell-based, human; settings: ovarian cancer, 48 h
[30] = system: OVCAR-4; assay: NCI single dose (10 µM) SRB screen; type: cell-based, human; settings: ovarian cancer, 48 h
[31] = system: OVCAR-8; assay: NCI single dose (10 µM) SRB screen; type: cell-based, human; settings: ovarian cancer, 48 h
[32] = system: NCI/ADR-RES; assay: NCI single dose (10 µM) SRB screen; type: cell-based, human; settings: ovarian cancer, 48 h
[33] = system: 786-0; assay: NCI single dose (10 µM) SRB screen; type: cell-based, human; settings: renal cancer, 48 h
[34] = system: CAKI-1; assay: NCI single dose (10 µM) SRB screen; type: cell-based, human; settings: renal cancer, 48 h
[35] = system: RXF 393; assay: NCI single dose (10 µM) SRB screen; type: cell-based, human; settings: renal cancer, 48 h
[36] = system: SN12C; assay: NCI single dose (10 µM) SRB screen; type: cell-based, human; settings: renal cancer, 48 h
[37] = system: TK-10; assay: NCI single dose (10 µM) SRB screen; type: cell-based, human; settings: renal cancer, 48 h
[38] = system: UO-31; assay: NCI single dose (10 µM) SRB screen; type: cell-based, human; settings: renal cancer, 48 h
[39] = system: PC-3; assay: NCI single dose (10 µM) SRB screen; type: cell-based, human; settings: prostate cancer, 48 h
[40] = system: DU-145; assay: NCI single dose (10 µM) SRB screen; type: cell-based, human; settings: prostate cancer, 48 h
[41] = system: MDA-MB-231; assay: NCI single dose (10 µM) SRB screen; type: cell-based, human; settings: breast cancer, 48 h
[42] = system: HS578T; assay: NCI single dose (10 µM) SRB screen; type: cell-based, human; settings: breast cancer, 48 h
[43] = system: BT-549; assay: NCI single dose (10 µM) SRB screen; type: cell-based, human; settings: breast cancer, 48 h
[44] = system: T-47D; assay: NCI single dose (10 µM) SRB screen; type: cell-based, human; settings: breast cancer, 48 h
[45] = system: MDA-MB-468; assay: NCI single dose (10 µM) SRB screen; type: cell-based, human; settings: breast cancer, 48 h
[46] = system: NCI 60 cancer cell lines; assay: NCI single dose (10 µM) SRB screen, mean over panel; type: cell-based, human; settings: mean over 60 cell lines, 48 h
[47] = system: Staphylococcus aureus; assay: Agar well diffusion method
[48] = system: Bacillus subtilis; assay: Agar well diffusion method
[49] = system: Escherichia coli; assay: Agar well diffusion method
[50] = system: Candida albicans; assay: Agar well diffusion method
[51] = system: Aspergillus flavus; assay: Agar well diffusion method

COC(=O)C1=C(C)NC(C)=C(C(=O)OC(C)C)C1c1cccc(C#N)c1 (racemic) [Compound 2a, (±)-3-Isopropyl 5-methyl 4-(3-cyanophenyl)-2,6-dimethyl-1,4-dihydropyridine-3,5-dicarboxylate]
53.8%: % activity index, E. coli ([49]; relative to ciprofloxacin)
11%: GI% CAKI-1 [34]
– (Only GI% ≥ 10 are shown): GI% RPMI-8226 [2] | GI% SR [3] | GI% A549/ATCC [4] | GI% HOP-62 [5] | GI% HOP-92 [6] | GI% NCI-H226 [7] | GI% NCI-H23 [8] | GI% NCI-H322M [9] | GI% COLO 205 [11] | GI% HCC-2998 [12] | GI% HCT-15 [13] | GI% SW-620 [14] | GI% SF-268 [15] | GI% SF-295 [16] | GI% SF-539 [17] | GI% SNB-19 [18] | GI% SNB-75 [19] | GI% U251 [20] | GI% LOX IMVI [21] | GI% MALME-3M [22] | GI% M14 [23] | GI% MDA-MB-435 [24] | GI% SK-MEL-28 [25] | GI% UACC-257 [26] | GI% UACC-62 [27] | GI% IGROV1 [28] | GI% OVCAR-3 [29] | GI% OVCAR-4 [30] | GI% OVCAR-8 [31] | GI% NCI/ADR-RES [32] | GI% 786-0 [33] | GI% RXF 393 [35] | GI% SN12C [36] | GI% TK-10 [37] | GI% UO-31 [38] | GI% DU-145 [40] | GI% MDA-MB-231 [41] | GI% HS578T [42] | GI% BT-549 [43] | GI% T-47D [44] | GI% MDA-MB-468 [45]
17 mm: zone of inhibition at 1000 µg/mL ([48]; Bacillus subtilis, 24 h, read-out: Diameter of inhibition zone, B. subtilis)
20 mm: zone of inhibition at 1000 µg/mL ([47]; Staphylococcus aureus, 24 h, read-out: Diameter of inhibition zone, S. aureus)
22 mm: zone of inhibition at 1000 µg/mL ([51]; Aspergillus flavus, 24 h, read-out: Diameter of inhibition zone, A. flavus)
14%: GI% NCI-H522 [10]
14 mm: zone of inhibition at 1000 µg/mL ([49]; Escherichia coli, 24 h, read-out: Diameter of inhibition zone, E. coli)
88%: % activity index, A. flavus ([51]; relative to clotrimazole)
21 mm: zone of inhibition at 1000 µg/mL ([50]; Candida albicans, 24 h, read-out: Diameter of inhibition zone, C. albicans)
73% and 73.9%: % activity index, B. subtilis ([48]; relative to ciprofloxacin)
77% and 77.8%: % activity index, C. albicans ([50]; relative to clotrimazole)
83% and 83.3%: % activity index, S. aureus ([47]; relative to ciprofloxacin)
16%: GI% MOLT-4 [1] | GI% PC-3 [39]
0%: Mean GI% [46]
